Drawing on the OligoGym collection, this text covers target mRNA inhibition for 77 sequences.

“And” between values parts separate entries of the source, which are not always exact repeats. Equal entries are not always repeated. After the bases stand the sugars from the 5' end (letter, count) and the backbone: PS all phosphorothioate, else s phosphorothioate and o phosphodiester by linkage. Methylation of C is not given here. e = 2'-O-(2-methoxyethyl) (MOE); k = constrained ethyl (cEt); d = 2'-deoxy (DNA); m = 2'-O-methyl

The data set addresses HSD17B13. The following applies: ASO, HepaRG.

Under “1 µM”, ACAGTTGAGTAGTGTA (sugars k3 d10 k3, PS) came in with a target mRNA inhibition of 72%. Turning to ACAGTTTAGATTGCAT (sugars k3 d10 k3, PS), the target mRNA inhibition was 12% (0.02 µM); 0% (0.078 µM); 73% (0.313 µM); 84% (1 µM); 73% (1.25 µM); 97% (5 µM). Where the note is “1 µM”, ACATAACTTCATAGTG (sugars k3 d10 k3, PS) displayed a target mRNA inhibition of 27%. On to ACATACGCATGCGCAG (sugars k3 d10 k3, PS), for which the target mRNA inhibition (1 µM) was 20%. With ACATAGACATGTGTTC (sugars k3 d10 k3, PS), for the setting “1 µM”, the target mRNA inhibition was found to be 35%. On the same count and under the same terms, the same measure for ACATATGTGAAGAGCT (sugars k3 d10 k3, PS): 66%. The same measure, in the same setting: the same measure for ACATCCAAGTAATTAC (sugars k3 d10 k3, PS): 56%. The same measure, in the same setting: with ACATTAGCAAGCTAAG (sugars k3 d10 k3, PS) the figure was 52%.

On to “ACATTGCAGTTATTAG (sugars k3 d9 k3 e1, PS)”, for which the target mRNA inhibition (1 µM) worked out at 52%. Take “ACATTGCAGTTATTAG (sugars kkdddddddddkekek, PS)”: the target mRNA inhibition (1 µM) was 46%.

For the setting “1 µM”, “ACCAAACTTCCAGCAG (sugars kkdddddddddkekek, PS)” came in with a target mRNA inhibition of 32%. Take ACCAACGACTCCAAGT (sugars k3 d10 k3, PS): under “1 µM”, the target mRNA inhibition was determined as 16%. ACCAATATGCTCTGTC (sugars k3 d10 k3, PS): the target mRNA inhibition runs as follows: (0.02 µM) 19%; (0.078 µM) 5%; (0.313 µM) 41%; (1 µM) 67%; (1.25 µM) 78%; (5 µM) 97%. As to ACCACACTAATGAATC (sugars k3 d10 k3, PS), the target mRNA inhibition (1 µM) worked out at 54%. With ACCACATAGCTAACTC (sugars k3 d10 k3, PS), the target mRNA inhibition (1 µM) stood at 50%. Where the note is “1 µM”, ACCCAAGCTACCTCCA (sugars k3 d10 k3, PS) returned a target mRNA inhibition of 9%. Under “1 µM”, ACCCTTAGGAAAGCTC (sugars k3 d10 k3, PS) gave a target mRNA inhibition of 52%. The sequence ACCGTATTCCCAACGC (sugars k3 d10 k3, PS) came in with a target mRNA inhibition (0.02 µM) of 14%; a target mRNA inhibition (0.078 µM) of 35%; a target mRNA inhibition (0.313 µM) of 76%; a target mRNA inhibition (1 µM) of 90%; a target mRNA inhibition (1.25 µM) of 83%; a target mRNA inhibition (5 µM) of 94%. “ACCGTTTTGGGCTAAT (sugars kkdddddddddkekek, PS)”: the target mRNA inhibition is, setting by setting: (0.02 µM) 23%; (0.078 µM) 24%; (0.313 µM) 37%; (1 µM) 76%; (1.25 µM) 66%; (5 µM) 78%.

In turn, “ACCGUTTTGGGCTAAT (sugars k3 d1 m1 d8 k3, PS)” displayed a target mRNA inhibition (1 µM) of 65%. Same read-out and setting: the same measure for ACCTATGGTCTAACAC (sugars k3 d10 k3, PS): 14%. Where the note is “1 µM”, ACCTCAAATGTCTTGG (sugars k3 d10 k3, PS) gave a target mRNA inhibition of 17%.

ACCTGATTTAGAGAGC (sugars k3 d10 k3, PS) registered a target mRNA inhibition (1 µM) of 65%.

On to ACCTTATTAATATCCC (sugars k3 d10 k3, PS), for which the target mRNA inhibition by setting is: (0.02 µM) 0%; (0.078 µM) 0%; (0.313 µM) 0%; (1 µM) 71% and 50%; (1.25 µM) 72%; (5 µM) 90%. ACCTTCCCTGTGTAAA (sugars k3 d10 k3, PS) yielded a target mRNA inhibition (1 µM) of 60%. ACGCATGCGCAGTGAC (sugars k3 d10 k3, PS): under “1 µM”, the target mRNA inhibition amounted to 52%. Still for that read-out and setting: the same measure for “ACTAATATTGAGGCAC (sugars k3 d9 k3 e1, PS)”: 62%; for ACTAATCTCAGTACTC (sugars k3 d10 k3, PS): 45%; for ACTAATGAATCATGAT (sugars k3 d10 k3, PS): 39%. The same measure, in the same setting: with “ACTACAAGAGGTTATT (sugars k3 d1 m1 d8 k3, PS)” the figure was 29%; with “ACTACAAGAGGTTATT (sugars kkdddddddddkekek, PS)”, 42%. With ACTATGTAATAGGCAG (sugars k3 d10 k3, PS), the target mRNA inhibition reads like this: (0.02 µM) 33%; (0.078 µM) 31%; (0.313 µM) 71%; (1 µM) 85%; (1.25 µM) 88%; (5 µM) 94%. As to ACTCGGGAAGTTTAGA (sugars k3 d10 k3, PS), the target mRNA inhibition (1 µM) came out at 26%.

ACTGAAATTGATACAC (sugars k3 d10 k3, PS) returned a target mRNA inhibition (1 µM) of 49%. In the case of ACTGAAGGCTGTGTAC (sugars k3 d10 k3, PS), the target mRNA inhibition (1 µM) was determined as 14%. The same measure, in the same setting: with ACTGATTTAGTTGGTA (sugars k3 d10 k3, PS) the figure was 55%; with ACTGTCCCAGCATTAT (sugars k3 d10 k3, PS), 40%. Still for that read-out and setting: the same measure for ACTGTGACGATGTGGC (sugars k3 d10 k3, PS): 40%; for ACTTCATAGTGGACTT (sugars k3 d10 k3, PS): 61%; for ACTTGAATTCTGTGTC (sugars k3 d10 k3, PS): 52%. For the setting “1 µM”, AGAAGATCGGCTGGAT (sugars k3 d10 k3, PS) yielded a target mRNA inhibition of 29%. Same read-out and setting: the same measure for “AGAATAGAGTTGCACC (sugars kkdddddddddkekek, PS)”: 59%. On to AGAATAGTCTTCAGCA (sugars k3 d10 k3, PS), for which the target mRNA inhibition (1 µM) amounted to 80%. Same read-out and setting: the same measure for “AGAAUAGAGTTGCACC (sugars k3 d1 m1 d8 k3, PS)”: 49%. Still for that read-out and setting: the same measure for AGACAGGGTGGTAACG (sugars k3 d10 k3, PS): 51%. Sequence AGACATGAGGTTTTGA (sugars k3 d10 k3, PS) came in with a target mRNA inhibition (1 µM) of 59%. For AGACTTTGAGACTCTT (sugars k3 d10 k3, PS), the target mRNA inhibition (1 µM) amounted to 57%. Regarding AGAGACATGAGGTTTT (sugars k3 d10 k3, PS), the target mRNA inhibition runs as follows: (0.02 µM) 18%; (0.078 µM) 16%; (0.313 µM) 47%; (1 µM) 77%; (1.25 µM) 69%; (5 µM) 85%. On to “AGAGAGTAATCAGTTT (sugars k3 d1 m1 d8 k3, PS)”, for which the target mRNA inhibition (1 µM) was found to be 25%. On the same count and under the same terms, the same measure for AGAGGCTAGGGAAATC (sugars k3 d10 k3, PS): 63%. As to “AGAGTTGCACCGTTTT (sugars k3 d9 k3 e1, PS)”, the target mRNA inhibition is, setting by setting: (0.02 µM) 0%; (0.078 µM) 0%; (0.313 µM) 26%; (1 µM) 78%; (1.25 µM) 55%; (5 µM) 45%.

“AGAGUCGGTCACCTTT (sugars k3 d1 m1 d8 k3, PS)” displayed a target mRNA inhibition (1 µM) of 55%.

“AGATAAAGCTGCCTGC (sugars k3 d1 m1 d8 k3, PS)”: the target mRNA inhibition (1 µM) was 35%. “AGATAAAGCTGCCTGC (sugars k3 d9 k3 e1, PS)” returned a target mRNA inhibition (1 µM) of 44%. The same measure, in the same setting: with “AGATAAAGCTGCCTGC (sugars kkdddddddddkekek, PS)” the figure was 30%; with AGATATTGATATACGA (sugars k3 d10 k3, PS), 20%. In turn, AGATCGGCTGGATATA (sugars k3 d10 k3, PS) came in with a target mRNA inhibition (1 µM) of 27%. AGCAAGCCAACAGAGA (sugars k3 d10 k3, PS) came in with a target mRNA inhibition (1 µM) of 40%. On to “AGCAGAATTGTGAACG (sugars k3 d1 m1 d8 k3, PS)”, for which, where the note is “1 µM”, the target mRNA inhibition is 51%. The same measure, in the same setting: with “AGCAGAATTGTGAACG (sugars k3 d9 k3 e1, PS)” the figure was 56%; with AGCAGAATTGTGAACG (sugars k3 d10 k3, PS), 67%; with AGCATATTCATTTGGC (sugars k3 d10 k3, PS), 61%. With AGCATCAAGACATTCT (sugars k3 d10 k3, PS), the target mRNA inhibition stood at 5% (0.02 µM); 15% (0.078 µM); 62% (0.313 µM); 79% (1 µM); 78% (1.25 µM); 86% (5 µM). For the sequence AGCCAAACTGCTACTG (sugars k3 d10 k3, PS), the target mRNA inhibition (1 µM) came out at 78%.

As to “AGCCAGTACAGTTCCT (sugars k3 d1 m1 d8 k3, PS)”, the target mRNA inhibition (1 µM) came to 65%. On the same count and under the same terms, the same measure for AGCCTAAAATTGTCTA (sugars k3 d10 k3, PS): 53%; for AGCGATAGATCTCTTC (sugars k3 d10 k3, PS): 31%; for AGCGGCAAATTTGCTG (sugars k3 d10 k3, PS): 5%.

The sequence AGCTAATGTATGAGGT (sugars k3 d10 k3, PS) displayed a target mRNA inhibition (1 µM) of 56%. On to AGCTAGACAATTGCAA (sugars k3 d10 k3, PS), for which the target mRNA inhibition (1 µM) is 30%.

As to AGGAGTAGTGGAGCCA (sugars k3 d10 k3, PS), the target mRNA inhibition (1 µM) is 16%. “AGGATAGTCCATGCAA (sugars kkdddddddddkekek, PS)” had a target mRNA inhibition (1 µM) of 46%. Sequence AGGCAAGGATACCTGA (sugars k3 d10 k3, PS) showed a target mRNA inhibition (1 µM) of 42%.

As to AGGCCATAATCTTGTG (sugars k3 d10 k3, PS), the target mRNA inhibition (1 µM) came out at 33%. AGGCTAAAATGGTCAT (sugars k3 d10 k3, PS) came in with a target mRNA inhibition (1 µM) of 36%. For the sequence “AGGCTAGGGAAATCTT (sugars k3 d9 k3 e1, PS)”, under “1 µM”, the target mRNA inhibition stood at 55%.

AGGCTAGGGAAATCTT (sugars k3 d10 k3, PS) returned a target mRNA inhibition (1 µM) of 62%.
